Measurements taken from US20010033827A1, “Inhibition of mucin release from airway goblet cells by polycationic peptides” (priority 1999, published 2001).

Assays:
[1] = system: hamster tracheal surface epithelial (HTSE) cells; test: Mucin release from cultured airway goblet cells (3H-glucosamine-labelled HTSE cell culture); type: cell-based, Golden Syrian hamsters; settings: for effect on mucin release/secretion (dose dependence): varying concentrations; for effect on mucin release/secretion (dose dependence) / "inhibition" of released mucins: 30 min chase, HTSE cells; for inhibitory effect on mucin release after LMWH pretreatment: 10^-5 M peptide, pretreatment with 2×10^-5 M LMWH for 5 min; for "inhibition" of released mucins / effect on mucin release, column-purified versus not column purified: 10^-5 M; for effect on mucin release, column-purified versus not column purified: unacetylated peptide
Experimental: The effects of poly-L-arginine (PLA) and poly-L-lysine (PLL) on mucin release from cultured airway goblet cells were evaluated. Tracheas obtained from 7-8 week old male Golden Syrian hamsters (Harlan Sprague Dawley, Indianapolis, Ind.) were used to establish a hamster tracheal surface epithelial, (HTSE) cell culture. HTSE cells were harvested and cultured on a thick collagen gel as described in Kim et al., 1989, Exp. Lung Res. 15: 299-314. Mucins were metabolically radiolabeled by incubating confluent cultures (24 well plate, 5×10^5 cells/well) with 0.2 ml/well of a “complete” medium containing 10 μCi/ml of ^3H-glucosamine for 24 hours as described in Kim et al., 1989, Am. J. Resp. Cell Mol. Biol. 1: 137-143. The “complete” medium was prepared by supplementing a mixture of Medium 199/Dulbecco's modified Eagle's medium (DME) (1:1) with insulin (5 μg/ml), transferrin (5 μg/ml), epidermal growth factor (12.5 ng/ml), 0.1 μM hydrocortisone, 0.01 μM sodium selenite, 0.1 μM retinoic acid, and 5% fetal bovine serum (Hyclone, Logan, Utah). At the end of the 24 hour incubation period, the spent media (the pretreatment sample) were collected, and the labeled cultures were washed twice with Dulbecco's PBS without Ca^++ and Mg^++ and then chased for 30 min in the presence of varying concentrations of poly-L-arginine (PLA, average MW 8,900) or poly-L-lysine (PLL, average MW 9,600). The chased media are referred to as the treatment samples. PLA and PLL were prepared in phosphate buffered saline (PBS), and the final pH's of these solutions were adjusted to be between 7.0 and 7.4. […] J. Resp. Cell Mol. Biol. 1: 137-143. At the end of the chase period, floating cells and cell debris were removed from the treatment samples by centrifigation at 12,000×g for 5 min. Fifty μl of the treatment samples were used for lactate dehydrogenase (LDH) assay (as discussed in Example 2 below) and the remaining samples were stored at −80° C. until assayed for their ^3H-mucin contents. High molecular weight glycoconjugates that were excluded after Sepharose CL-4B (Phainacia, Upsaala, Sweden) gel-filtration column chromatography and that were resistant to hyaluronidase, were defined as mucins, as described in Kim et al., 1985, J. Biol. Chem. 260:4021:4027. Mucins were measured by column chromatography as described in Kim et al, 1987, Proc. Natl. Acad. Sci. USA 84:9304-9308.

[2] = system: HTSE cells; test: LDH release cytotoxicity assay in HTSE cells; type: cell-based, Golden Syrian hamsters; settings: for cytotoxicity as determined by LDH release / LDH release: HTSE cells; for cytotoxicity as determined by LDH release: techniques of examples 1-4; for LDH release: 10^-5 M, 30 min treatment; for LDH release across concentration groups: varying concentrations, 30 min, HTSE cells (FIG. 2)
Experimental: (§1) The effects of PLA or PLL on cell toxicity were also examined. The possible cytotoxicity of these polypeptides was assessed by four different methods: (a) LDH release, (b) ^51Cr release, (c) cell exfoliation, and (d) light microscopy. Cultures were treated with either PLA or PLL for 30 min, and then assayed as follows. An LDH assay was conducted using an LDH assay kit (LD-L10) (Sigma Chemical Co., St. Louis, Mo.), according to the manufacturer's directions. A 51Cr release assay was carried out as described in Kim et al., 1987, Proc. Natl. Acad. Sci. USA 84:9304-9308. The degree of exfoliation was measured by counting the floating cells at the end of the 24 hr post-treatment period. Floating cells were collected as a pellet from spent media by centrifugation at 200×g for 5 min at 4° C. The resulting cell pellet was suspended in a solution containing 0.05% Trypsin and 0.02% EDTA, and the suspension was incubated at 37° C. for 10 min before dissociated cells were counted using a hemacytometer.

[3] = system: SO2-induced goblet cell metaplasia; test: SO2-induced goblet cell metaplasia in rats (inhaled peptide, PAS staining); type: in vivo, Sprague-Dawley rats; settings: rat, inhaled 100 μl of 50, 500 or 5,000 μM once a day for five days, 150 ppm SO2
Experimental: To examine the effects of PLL or PLA in vivo, the effect of PLL or PLA on goblet cell metaplasia in rats was determined. Exposure of rats to SO2 was carried out essentially according to the method described in Kase et al, 1982, Arzneim-Forsch Drug Research 32:368-373. Eight to ten week-old male Sprague-Dawley rats were placed in a polyacrylic chamber (100 cm×60 cm×25 cm) and exposed to SO2 for three weeks, three hours per day, five days per week. The SO2 gas was generated from a solution containing 10% (W/V) sodium metabisulfite by aerosolization using an ultrasonic humidifier (Samsung Electronic Co., Korea). Concentrations of the generated SO2 gas were monitored before and after the exposure using a SO2 detector kit (Gastec Co., Japan), which has a detection range from 20 to 3600 ppm of SO2. The concentration of the SO2 gas inside the chamber was maintained at 150 ppm during all of the exposure periods.
PLA (average MW 10,800) was prepared in phosphate buffered saline (PBS), pH 7.2, in various concentrations. Following treatment of the animals with SO2 for 2 weeks, animals were treated with both S and PLA during a third week. A 100 μl aliquot of one of the PLA solutions was administered to each rat using an inhaler (PAPI master, Stamberg, Germany), once a day for five consecutive days, during the period immediately following the two week SO2 treatment period. […]

[4] = system: HTSE cells; test: 51Cr release assay in HTSE cells; type: cell-based, Golden Syrian hamsters; settings: 10^-5 M, 30 min; control 100±4%
Experimental: as §1

[5] = system: HTSE cells; test: Cell exfoliation (floating cell count) in HTSE cultures; type: cell-based, Golden Syrian hamsters; settings: 10^-5 M; 24 hr post-treatment period; control 1992±132
Experimental: as §1

[6] = system: HTSE cells; test: Light microscopy of treated HTSE cells; type: cell-based, Golden Syrian hamsters; settings: end of 30 min treatment or end of 24 hr post-treatment period
Experimental: as §1

[7] = system: HTSE cells; test: ATP-induced mucin release in HTSE cells; type: cell-based, Golden Syrian hamsters; settings: 10^-5 M peptide with 2×10^-4 M ATP, 30 min chase
Experimental: The effects of poly-L-arginine (PLA) and poly-L-lysine (PLL) on mucin release from cultured airway goblet cells were evaluated. Tracheas obtained from 7-8 week old male Golden Syrian hamsters (Harlan Sprague Dawley, Indianapolis, Ind.) were used to establish a hamster tracheal surface epithelial, (HTSE) cell culture. HTSE cells were harvested and cultured on a thick collagen gel as described in Kim et al., 1989, Exp. Lung Res. 15: 299-314. Mucins were metabolically radiolabeled by incubating confluent cultures (24 well plate, 5×10^5 cells/well) with 0.2 ml/well of a “complete” medium containing 10 μCi/ml of ^3H-glucosamine for 24 hours as described in Kim et al., 1989, Am. J. Resp. Cell Mol. Biol. 1: 137-143. The “complete” medium was prepared by supplementing a mixture of Medium 199/Dulbecco's modified Eagle's medium (DME) (1:1) with insulin (5 μg/ml), transferrin (5 μg/ml), epidermal growth factor (12.5 ng/ml), 0.1 μM hydrocortisone, 0.01 μM sodium selenite, 0.1 μM retinoic acid, and 5% fetal bovine serum (Hyclone, Logan, Utah). […] Mucins were measured by column chromatography as described in Kim et al, 1987, Proc. Natl. Acad. Sci. USA 84:9304-9308. […]

poly-L-arginine [High molecular weight PLA]
effect on mucin release/secretion (dose dependence) [1]: inhibited mucin secretion in a dose-dependent fashion | cytotoxicity as determined by LDH release [2]: associated with cytotoxicity

poly-L-arginine [Low molecular weight PLA (14 residues)]
effect on mucin release/secretion (dose dependence) [1]: inhibited mucin secretion in a dose dependent fashion | cytotoxicity as determined by LDH release [2]: without any evidence of cytotoxicity

poly-L-arginine [Low molecular weight PLA (20 residues)]
effect on mucin release/secretion (dose dependence) [1]: inhibited mucin secretion in a dose dependent fashion | cytotoxicity as determined by LDH release [2]: without any evidence of cytotoxicity

poly-L-arginine [PLA (5 residues)]
effect on mucin release/secretion (dose dependence) [1]: did not show any significant inhibition

poly-L-arginine [PLA (average MW 10,800)]
goblet cell metaplasia induced by SO2 [3]: prevented by PLA in a dose-dependent fashion

poly-L-arginine [PLA]
inhibitory effect on mucin release after LMWH pretreatment [1]: completely blocked | "inhibition" of released mucins [1]: 85% | effect on mucin release, column-purified versus not column purified [1]: no significant difference | effect on mucin release/secretion (dose dependence) [1]: dose-dependent decrease | LDH release [2]: no significant increases | LDH release across concentration groups [2]: no significant difference | 51Cr release [4]: 102±11% | number of floating cells/well [5]: 2154±84 cells/well | microscopic difference between control and treated cells [6]: no apparent microscopic difference | stimulatory effect of ATP on mucin release [7]: completely blocked

poly-L-lysine [High molecular weight PLL]
effect on mucin release/secretion (dose dependence) [1]: inhibited mucin secretion in a dose-dependent fashion | cytotoxicity as determined by LDH release [2]: associated with cytotoxicity

poly-L-lysine [Low molecular weight PLL (5 residues)]
effect on mucin release/secretion (dose dependence) [1]: did not show any significant inhibition

poly-L-lysine [Low molecular weight PLL (14 residues)]
effect on mucin release/secretion (dose dependence) [1]: inhibited mucin secretion in a dose dependent fashion | cytotoxicity as determined by LDH release [2]: without any evidence of cytotoxicity

poly-L-lysine [Low molecular weight PLL (20 residues)]
effect on mucin release/secretion (dose dependence) [1]: inhibited mucin secretion in a dose dependent fashion | cytotoxicity as determined by LDH release [2]: without any evidence of cytotoxicity

poly-L-lysine [PLL]
inhibitory effect on mucin release after LMWH pretreatment [1]: completely blocked | "inhibition" of released mucins [1]: 87% | effect on mucin release, column-purified versus not column purified [1]: no significant difference | effect on mucin release/secretion (dose dependence) [1]: dose-dependent decrease | LDH release [2]: no significant increases | LDH release across concentration groups [2]: no significant difference | 51Cr release [4]: 103±10% | number of floating cells/well [5]: 1920±70 cells/well | microscopic difference between control and treated cells [6]: no apparent microscopic difference | stimulatory effect of ATP on mucin release [7]: completely blocked
